# Assay results taken from patent publication US20220073525A1, “COMPOSITIONS FOR INHIBITING UBIQUITIN SPECIFIC PROTEASE 1” (FORMA Therapeutics, Inc., priority 2019, published 2022).
# Target: USP1 (Homo sapiens, UniProt O94782)
# Assay: Biochemical Assay for USP1 Inhibition (Ub-Rho 110 fluorescence)
# Conditions: Table 5; 30 min preincubation, Enzyme 0.025 nM, Substrate Ub-Rho 110 25 nM; read-out: IC50 (μm)
# Description: The assay was performed in a final volume of 6 μL in assay buffer containing 20 mM Tris-HCl pH 8.0, (1 M Tris-HCl, pH 8.0 solution; Corning 46-031-CM), 1 mM GSH (L-glutathione reduced, Sigma-Aldrich, G4251-100G), 0.03% BGG (0.22 μM filtered, Sigma, G7516-25G), and 0.01% Triton X-100 (Sigma, T9284-10L). Nanoliter quantities of 10-point, 3-fold serial dilution in DMSO were pre-dispensed into 1536 assay plates (Corning, #3724BC) for a final test concentration of 25 μM to 1.3 nM, top to lowest dose, respectively. Concentration and incubation times were optimized for the maximal signal-to-background while maintaining initial velocity conditions at a fixed substrate concentration (<<Km). 3 μL of 2× Enzyme was added to assay plates (pre-stamped with compound), preincubated for 30 min, and then treated with 3 μL of 2× Substrate (Ub-Rho 110, UbiQ-126). Final concentrations of Enzyme and Substrate are 0.025 nM and 25 nM, respectively. Plates were read using a kinetic protocol continuously for 11 min on the Envision (Perkin Elmer) or PheraSTAR (BMG), excitation at 485 nm and emission at 535 nm or excitation at 520 nm and emission at 590 nm. For all assay formats, data were reported as percent inhibition compared with control wells based on the following equation: % inh=100*([…]), where FLU=measured Fluorescence, AveLow=average Fluorescence of no enzyme control (n=32), and AveHigh=average Fluorescence of DMSO control (n=32). IC50 values were determined by curve fitting of the standard 4 parameter logistic fitting algorithm included in the Activity Base software package: TDBS XE Designer Model205. Data is fitted using the Levenburg Marquardt algorithm.
# In Table 5, absolute stereochemistry has not been determined for some Compounds. Accordingly, assignment ofany Compounds as the “R” or “S” stereoisomer is arbitrary, unless otherwise noted. In some cases, Compounds are labeled with “1st eluting isomer”, “2nd eluting isomer”, etc. based on the purification method used to separate the stereoisomers.
# Chain of USP1 (O94782 whole entry): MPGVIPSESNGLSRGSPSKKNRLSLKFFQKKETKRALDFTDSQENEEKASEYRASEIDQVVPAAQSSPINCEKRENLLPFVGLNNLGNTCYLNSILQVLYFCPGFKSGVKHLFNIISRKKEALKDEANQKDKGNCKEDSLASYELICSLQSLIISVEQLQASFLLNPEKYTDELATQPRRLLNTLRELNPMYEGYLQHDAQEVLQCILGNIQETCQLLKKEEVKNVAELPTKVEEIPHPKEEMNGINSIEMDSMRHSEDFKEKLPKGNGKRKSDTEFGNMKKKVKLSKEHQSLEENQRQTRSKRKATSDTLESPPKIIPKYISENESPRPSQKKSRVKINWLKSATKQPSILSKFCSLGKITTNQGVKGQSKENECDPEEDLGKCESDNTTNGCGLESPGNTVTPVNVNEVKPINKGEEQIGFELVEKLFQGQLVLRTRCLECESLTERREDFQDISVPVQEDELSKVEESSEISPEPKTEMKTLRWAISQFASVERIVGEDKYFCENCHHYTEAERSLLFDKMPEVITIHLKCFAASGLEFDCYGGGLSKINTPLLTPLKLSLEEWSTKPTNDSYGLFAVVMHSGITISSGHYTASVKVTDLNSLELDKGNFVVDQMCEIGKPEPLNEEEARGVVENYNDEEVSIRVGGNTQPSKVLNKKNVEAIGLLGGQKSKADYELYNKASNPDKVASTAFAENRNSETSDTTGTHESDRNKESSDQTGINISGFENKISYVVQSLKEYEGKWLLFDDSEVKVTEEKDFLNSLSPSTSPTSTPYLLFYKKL
# Chain of USP1 (Q8TAF3 whole entry partner): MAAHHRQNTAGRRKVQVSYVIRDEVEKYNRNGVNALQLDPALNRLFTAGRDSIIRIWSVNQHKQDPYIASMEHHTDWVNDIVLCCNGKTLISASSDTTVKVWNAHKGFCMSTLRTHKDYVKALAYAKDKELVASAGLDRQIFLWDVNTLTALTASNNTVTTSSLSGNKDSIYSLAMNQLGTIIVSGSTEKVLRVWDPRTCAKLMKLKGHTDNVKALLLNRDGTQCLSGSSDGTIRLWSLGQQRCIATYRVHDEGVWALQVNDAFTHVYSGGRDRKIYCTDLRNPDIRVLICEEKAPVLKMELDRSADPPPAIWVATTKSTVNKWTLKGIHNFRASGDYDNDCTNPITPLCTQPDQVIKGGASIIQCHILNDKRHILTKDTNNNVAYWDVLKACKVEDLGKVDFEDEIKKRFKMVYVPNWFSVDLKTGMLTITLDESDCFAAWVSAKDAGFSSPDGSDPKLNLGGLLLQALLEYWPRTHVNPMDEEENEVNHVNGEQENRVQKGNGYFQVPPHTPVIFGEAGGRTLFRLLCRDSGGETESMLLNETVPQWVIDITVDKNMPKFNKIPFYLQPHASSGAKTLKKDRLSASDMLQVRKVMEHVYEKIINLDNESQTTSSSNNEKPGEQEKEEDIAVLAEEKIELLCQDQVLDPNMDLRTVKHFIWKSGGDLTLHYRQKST
row,SMILES,IC50
1,"Cc1nc(-c2cccnc2C(C)C)c2n1CCN(c1ccc(C(=O)N3CCC[C@@H]3C)cc1)C2 [Compound 55, 3-(3-methyl-7-{4-[(2S)-2-methylpyrrolidine-1-carbonyl]phenyl}-5H,6H,7H,8H-imidazo[1,5-a]pyrazin-1-yl)-2-(propan-2-yl)pyridine]",1 to 10 µM
2,"Cc1nc(-c2cccnc2C(C)C)c2n1C(C)CN(c1ccc(-c3nc(C(F)(F)F)cn3C)cc1)C2 (centres unmarked) [Compound 56, 3-(3,5-dimethyl-7-{4-[1-methyl-4-(trifluoromethyl)-1H-imidazol-2-yl]phenyl}-5H,6H,7H,8H-imidazo[1,5-a]pyrazin-1-yl)-2-(propan-2-yl)pyridine]",≤ 1 µM
3,"Cc1nc(-c2cccnc2C(C)C)c2n1CCN(c1ccc(C(=O)NCC3CC3)cc1)C2 [Compound 57, N-(cyclopropylmethyl)-4-{3-methyl-1-[2-(propan-2-yl)pyridin-3-yl]-5H,6H,7H,8H-imidazo[1,5-a]pyrazin-7-yl}benzamide]",> 25 µM
4,"Cc1nc(-c2cccnc2C(C)C)c2n1CCN(c1ccc(C(=O)N(C)CC(F)(F)F)cc1)C2 [Compound 58, N-methyl-4-{3-methyl-1-[2-(propan-2-yl)pyridin-3-yl]-5H,6H,7H,8H-imidazo[1,5-a]pyrazin-7-yl}-N-(2,2,2-trifluoroethyl)benzamide]",1 to 10 µM
5,"Cc1nc(-c2cccnc2C(C)C)c2n1CCN(c1ccc(NC(=O)C3CC3)cc1)C2 [Compound 59, N-(4-{3-methyl-1-[2-(propan-2-yl)pyridin-3-yl]-5H,6H,7H,8H-imidazo[1,5-a]pyrazin-7-yl}phenyl)cyclopropanecarboxamide]",1 to 10 µM
6,"Cc1nc(-c2cccnc2C(C)C)c2n1CCN(c1cccc(C(=O)N(C)C3CC3)c1)C2 [Compound 60, N-cyclopropyl-N-methyl-3-{3-methyl-1-[2-(propan-2-yl)pyridin-3-yl]-5H,6H,7H,8H-imidazo[1,5-a]pyrazin-7-yl}benzamide]",> 25 µM
7,"Cc1nc(-c2cccnc2C(C)C)c2n1CCN(c1cccc(C(=O)N3CCC[C@H]3C)c1)C2 [Compound 61, 3-(3-methyl-7-{3-[(2R)-2-methylpyrrolidine-1-carbonyl]phenyl}-5H,6H,7H,8H-imidazo[1,5-a]pyrazin-1-yl)-2-(propan-2-yl)pyridine]",> 25 µM
8,"Cc1nc(-c2cccnc2C(C)C)c2n1CCN(c1cccc(C(=O)N3CCC[C@@H]3C)c1)C2 [Compound 62, 3-(3-methyl-7-{3-[(2S)-2-methylpyrrolidine-1-carbonyl]phenyl}-5H,6H,7H,8H-imidazo[1,5-a]pyrazin-1-yl)-2-(propan-2-yl)pyridine]",> 25 µM
9,"COCCn1cc(C(F)(F)F)nc1-c1ccc(N2CCn3c(C)nc(-c4cccnc4C(C)C)c3C2)cc1 [Compound 63, 3-(7-{4-[1-(2-methoxyethyl)-4-(trifluoromethyl)-1H-imidazol-2-yl]phenyl}-3-methyl-5H,6H,7H,8H-imidazo[1,5-a]pyrazin-1-yl)-2-(propan-2-yl)pyridine]",≤ 1 µM
10,"Cc1nc(-c2cccnc2C(C)C)c2n1CCN(c1ccc(-c3nc(CO)co3)cc1)C2 [Compound 64, [2-(4-{3-methyl-1-[2-(propan-2-yl)pyridin-3-yl]-5H,6H,7H,8H-imidazo[1,5-a]pyrazin-7-yl}phenyl)-1,3-oxazol-4-yl]methanol]",10 to 25 µM
11,"Cc1cnc(-c2ccc(N3CCn4c(C)nc(-c5cccnc5C(C)C)c4C3)cc2)o1 [Compound 65, 3-{3-methyl-7-[4-(5-methyl-1,3-oxazol-2-yl)phenyl]-5H,6H,7H,8H-imidazo[1,5-a]pyrazin-1-yl}-2-(propan-2-yl)pyridine]",≤ 1 µM
12,"Cc1nc(-c2cccnc2C(C)C)c2n1CCN(c1ccc(-c3ncn(C)n3)cc1)C2 [Compound 66, 3-{3-methyl-7-[4-(1-methyl-1H-1,2,4-triazol-3-yl)phenyl]-5H,6H,7H,8H-imidazo[1,5-a]pyrazin-1-yl}-2-(propan-2-yl)pyridine]",10 to 25 µM
13,"Cc1nc(-c2cccnc2C(C)C)c2n1CCN(c1ccc(-n3nccn3)cc1)C2 [Compound 67, 3-{3-methyl-7-[4-(2H-1,2,3-triazol-2-yl)phenyl]-5H,6H,7H,8H-imidazo[1,5-a]pyrazin-1-yl}-2-(propan-2-yl)pyridine]",1 to 10 µM
14,"Cc1nc(-c2cccnc2C(C)C)c2n1CCN(c1ccc(-c3nc(Cl)cn3C)cc1)C2 [Compound 68, 3-{7-[4-(4-chloro-1-methyl-1H-imidazol-2-yl)phenyl]-3-methyl-5H,6H,7H,8H-imidazo[1,5-a]pyrazin-1-yl}-2-(propan-2-yl)pyridine]",≤ 1 µM
15,"Cc1nc(-c2cccnc2C(C)C)c2n1CCN(c1ccc(-c3cnn(CC(C)C)c3)cc1)C2 [Compound 69, 3-(3-methyl-7-{4-[1-(2-methylpropyl)-1H-pyrazol-4-yl]phenyl}-5H,6H,7H,8H-imidazo[1,5-a]pyrazin-1-yl)-2-(propan-2-yl)pyridine]",1 to 10 µM
16,"COCCn1cc(-c2ccc(N3CCn4c(C)nc(-c5cccnc5C(C)C)c4C3)cc2)cn1 [Compound 70, 3-(7-{4-[1-(2-methoxyethyl)-1H-pyrazol-4-yl]phenyl}-3-methyl-5H,6H,7H,8H-imidazo[1,5-a]pyrazin-1-yl)-2-(propan-2-yl)pyridine]",10 to 25 µM
17,"Cc1nc(-c2cccnc2C(C)C)c2n1CCN(c1ccc(-c3cnn(C4COC4)c3)cc1)C2 [Compound 71, 3-(3-methyl-7-{4-[1-(oxetan-3-yl)-1H-pyrazol-4-yl]phenyl}-5H,6H,7H,8H-imidazo[1,5-a]pyrazin-1-yl)-2-(propan-2-yl)pyridine]",> 25 µM
18,"Cc1nc(-c2cccnc2C(C)C)c2n1CCN(c1ccc(-c3nc(C(F)(F)F)cn3C3CN(C)C3)cc1)C2 [Compound 73, 3-(3-methyl-7-{4-[1-(1-methylazetidin-3-yl)-4-(trifluoromethyl)-1H-imidazol-2-yl]phenyl}-5H,6H,7H,8H-imidazo[1,5-a]pyrazin-1-yl)-2-(propan-2-yl)pyridine]",≤ 1 µM
19,"Cc1nc(-c2cccnc2C(C)C)c2n1CCN(c1ccc(-c3cnn(C4CCOCC4)c3)cc1)C2 [Compound 74, 3-(3-methyl-7-{4-[1-(oxan-4-yl)-1H-pyrazol-4-yl]phenyl}-5H,6H,7H,8H-imidazo[1,5-a]pyrazin-1-yl)-2-(propan-2-yl)pyridine]",10 to 25 µM
20,"Cc1nc(-c2cccnc2C(C)C)c2n1CCN(c1ccc(-c3nc(C(F)(F)F)cn3C)nc1)C2 [Compound 75, 5-{3-methyl-1-[2-(propan-2-yl)pyridin-3-yl]-5H,6H,7H,8H-imidazo[1,5-a]pyrazin-7-yl}-2-[1-methyl-4-(trifluoromethyl)-1H-imidazol-2-yl]pyridine]",≤ 1 µM
21,"Cc1nc(-c2cccnc2C(C)C)c2n1CCN(c1ccc(-c3nc(C(F)(F)F)cn3C3CC3)cc1)C2 [Compound 76, 3-(7-{4-[1-cyclopropyl-4-(trifluoromethyl)-1H-imidazol-2-yl]phenyl}-3-methyl-5H,6H,7H,8H-imidazo[1,5-a]pyrazin-1-yl)-2-(propan-2-yl)pyridine]",≤ 1 µM
22,"Cc1cn(C)c(-c2ccc(N3CCn4c(C)nc(-c5cccnc5C(C)C)c4C3)cc2)n1 [Compound 77, 3-{7-[4-(1,4-dimethyl-1H-imidazol-2-yl)phenyl]-3-methyl-5H,6H,7H,8H-imidazo[1,5-a]pyrazin-1-yl}-2-(propan-2-yl)pyridine]",≤ 1 µM
23,"Cc1nc(-c2cccnc2OC(F)F)c2n1CCN(c1ccc(-n3ccc(C(F)(F)F)n3)cc1)C2 [Compound 78, 2-(difluoromethoxy)-3-(3-methyl-7-{4-[3-(trifluoromethyl)-1H-pyrazol-1-yl]phenyl}-5H,6H,7H,8H-imidazo[1,5-a]pyrazin-1-yl)pyridine]",≤ 1 µM
24,"Cc1nc(-c2cccnc2C(C)C)c2n1CCN(c1cnc(-c3nc(C(F)(F)F)cn3C)cn1)C2 [Compound 79, 2-{3-methyl-1-[2-(propan-2-yl)pyridin-3-yl]-5H,6H,7H,8H-imidazo[1,5-a]pyrazin-7-yl}-5-[1-methyl-4-(trifluoromethyl)-1H-imidazol-2-yl]pyrazine]",≤ 1 µM
25,"Cc1nc(-c2cccnc2C(C)C)c2n1CCN(c1ccc(-c3nc(C4CC4)cn3C)cc1)C2 [Compound 80, 3-{7-[4-(4-cyclopropyl-1-methyl-1H-imidazol-2-yl)phenyl]-3-methyl-5H,6H,7H,8H-imidazo[1,5-a]pyrazin-1-yl}-2-(propan-2-yl)pyridine]",≤ 1 µM
26,"Cc1cc(Cl)nn1-c1ccc(N2CCn3c(C)nc(-c4cccnc4OC(F)F)c3C2)cc1 [Compound 81, 3-{7-[4-(3-chloro-5-methyl-1H-pyrazol-1-yl)phenyl]-3-methyl-5H,6H,7H,8H-imidazo[1,5-a]pyrazin-1-yl}-2-(difluoromethoxy)pyridine]",≤ 1 µM
